# Data from US7524487B2, “Compositions and methods for modulating interleukin-10” (University of Maryland, priority 2005, dated 2009).
# Where two headings read alike, the source gives them in different places.
# B1: CSF-1: colony stimulating factor-1, an ERK activating agent identified by the screening method (protein, UniProt P09603 33-554, looked up)
# Macrophage colony-stimulating …: EEVSEYCSHMIGSGHLQSLQRLIDSQMETSCQITFEFVDQEQLKDPVCYLKKAFLLVQDIMEDTMRFRDNTPNAIAIVQLQELSLRLKSCFTKDYEEHDKACVRTFYETPLQLLEKVKNVFNETKNLLDKDWNIFSKNCNNSFAECSSQDVVTKPDCNCLYPKAIPSSDPASVSPHQPLAPSMAPVAGLTWEDSEGTEGSSLLPGEQPLHTVDPGSAKQRPPRSTCQSFEPPETPVVKDSTIGGSPQPRPSVGAFNPGMEDILDSAMGTNWVPEEASGEASEIPVPQGTELSPSRPGGGSMQTEPARPSNFLSASSPLPASAKGQQPADVTGTALPRVGPVRPTGQDWNHTPQKTDHPSALLRDPPEPGSPRISSLRPQGLSNPSTLSAQPQLSRSHSSGSVLPLGELEGRRSTRDRRSPAEPEGGPASEGAARPLPRFNSVPLTDTGHERQSEGSFSPQLQESVFHLLVPSVILVLLAVGGLLFYRWRRRSHQEPQRADSPLEQPEGSPLTQDDRQVELPV
# Experiments:
# [1] = system: ERK1/2; assay: Western blot of ERK activation (phospho-ERK) in macrophages; type: cell-based, mice; settings: macrophages stimulated with LPS 10 ng/ml plus the agent, versus LPS alone
# Method: FIG. 1 is a Western blot showing the kinetics of MAPK activation in bone marrow derived macrophages (BMMφ) stimulated with (LPS) alone or LPS in combination with E-IgG, an immune complex that ligates the FcγR. BMMφ were stimulated with LPS (10 ng/ml)±E-IgG. Cells were then lysed at the indicated times and equal amounts of whole cell lysates were separated by SDS PAGE and analyzed by Western blotting using phospho-specific Abs to ERK1/2, p38 or JNK. Total ERK1/2 (bottom panel) was used as the loading control.
# Western blots. 2×10^6 BMMφper well were plated overnight in 60 mm culture dishes. […]
# Cells were lysed at various indicated times and ERK activation was measured by Western Blot using antibodies to phosphorylated ERK (FIG. 9B).
# ERK activation was analyzed at the indicated times by Western Blot, using antibodies to phosphorylated ERK.
# [2] = system: bone marrow derived macrophages (BMMφ); assay: Cytokine ELISA on supernatants of stimulated bone marrow derived macrophages (LPS ± E-IgG)
# [3] = system: BMMφ; assay: Cytokine ELISA (IL-10, IL-12) after HDAC inhibitor treatment of BMMφ stimulated with LPS+IC; type: cell-based, mice; settings: TSA added to BMMφ for 1 hr, washed, then 10 ng/ml LPS+IC for 6 hrs
# Method: FIG. 21 is a graph showing cytokine production following histone deacetylation. TSA was added to BMMφ for 1 hr and the cells were then washed with warmed medium before stimulation with 10 ng/ml LPS+IC. After LPS+IC stimulation for 6 hrs, the supernatants were collected and IL-10 and IL-12 were measured by ELISA. Results shown are one representative from two independent experiments conducted in triplicate (mean±SD).
# To further examine histone acetylation, macrophages were treated with increasing doses of the HDAC inhibitor, TSA, prior to stimulation. IL-10 levels were measured 6 hrs later. […] This observation is consistent with the hypothesis that an increase in histone H3 acetylation was not a pre-requisite for IL-10 gene transcription following stimulation by LPS+IC.
# [4] = system: IL-10 promoter; assay: ChIP of histone H3 phosphorylation at the IL-10 promoter in stimulated BMMφ; type: cell-based, mice; settings: BMMφ pretreated 30 min with PD98059 10 μM or SB203580 1 μM, then IgG-OVA + LPS for 40 min
# Method: BMMφ were stimulated with medium (open bars), LPS (solid bars) or E-IgG+LPS (striped bars) for 15 minutes (A), or the indicated times (B) and ChIP assays were carried out as described in Materials and Methods. Immunoprecipitations utilized antibodies specific to phospho-H3 (left panel) or acetyl-H3 (right panel). A. conventional RT-PCR and B. real time PCR were carried out using IL-10 promoter or IL-12p40 promoter specific primers. For real time PCR, samples were normalized to input DNA controls.
# Cells were pretreated with PD98059 (10 μM), SB203580 (1 μM) or medium for 30 min then stimulated with medium (open bar), IgG-OVA (dotted bar), LPS (solid bar), or both (striped bars) for 40 min. ChIP analysis was carried out using a phospho-H3 specific Ab. A. Conventional RT-PCR was carried out using IL-10 promoter or IL-12p40 promoter specific primers. B. Real time PCR analysis of samples obtained in A. Samples were normalized to input DNA controls.
# FIG. 22 is a graph showing Inhibition of histone modifications by blocking ERK. BMMφ were pre-treated with PD98059 (15 μM) (solid bars) or drug vehicle (open bars) for 1 hour and then stimulated with IC plus LPS (10 ng/mL). Cross-linked chromatin fragments were immunoprecipitated with antibody to phosphorylated histone H3 at Ser 10 or antibody to Sp1. The DNA was purified and analyzed for the presence of IL-10 promoter sequences corresponding to nucleosome −2 by QRT-PCR. The data were plotted graphically as the percentage change relative to drug vehicle (IC/LPS) at 30 min post-stimulation for histone H3 phosphorylation, and at 45 min post-stimulation for Sp1 recruitment. One representative from two independent experiments is presented.
# Chromatin immunoprecipitation (ChIP). ChIPs were carried out using the ChIP Assay kit following the manufacturer's protocol (Upstate USA, Inc., Lake Placid, N.Y.). Briefly, 1×10^6 BMMφ were plated overnight in 6-well plates. Cells were stimulated as described in Figure Legends then fixed for 10 min at 37° C. in paraformaldehyde (1% final concentration). […]
molecule,measurement,setting,value
"CCCCCCCCCCCCCC(=O)O[C@@H]1[C@@H](C)[C@@]2(O)[C@@H](C=C(CO)C[C@]3(O)C(=O)C(C)=C[C@@H]23)[C@@H]2C(C)(C)[C@]12OC(C)=O [PMA, phorbol 12-myristate 13-acetate]","ERK activation (phosphorylated ERK, Western blot)",[1],activated
same,IL-10 production (ELISA) of LPS-stimulated macrophages in presence of the ERK activator,[2],induced
"CC(/C=C/C(=O)NO)=C\[C@@H](C)C(=O)c1ccc(N(C)C)cc1 [TSA, Trichostatin A]",IL-10 production (ELISA),[3],failed to influence
same,IL-12 production (ELISA),[3],substantially inhibit
C[S+]([O-])c1ccc(-c2nc(-c3ccncc3)c(-c3ccc(F)cc3)[nH]2)cc1 (centres unmarked) [SB203580],histone H3 phosphorylation at the IL-10 promoter induced by immune complex (ChIP),[4],"decreasing it substantially, but not reducing it to background levels"
same,IL-10 secretion (ELISA),"[2]; BMMφ pretreated 30 min with PD98059 10 μM, SB203580 1 μM or JNK inhibitory peptide 1 μM, then LPS 10 ng/ml ± E-IgG, supernatants after 20 h",substantial inhibition
same,IL-12 (p40) production (ELISA),"[2]; BMMφ pretreated 30 min with inhibitor, then LPS 10 ng/ml ± E-IgG, 20 h",Neither of these inhibitors decreased
same,LPS-induced IL-10 production,"[2]; BMMφ, LPS 10 ng/ml alone, 20 h, inhibitor pretreatment or 100 nM siRNA",prevented
B1,"ERK activation (phosphorylated ERK, Western blot)",[1],activated
same,IL-10 production (ELISA) of LPS-stimulated macrophages in presence of the ERK activator,"[2]; LPS plus agent versus LPS alone, CSF-1 100 ng/ml added simultaneously with LPS, IL-10 measured 20 hrs later",induce more IL-10
same,IL-10 induction by the agent on its own,[2]; macrophages without inflammatory stimulus,does not induce IL-10 on its own
